Assay results reported in patent US7683055B2, “Lanthionine-related compounds for the treatment of inflammatory diseases” (Oklahoma Medical Research Foundation, priority 2006, dated 2010).

How the values were obtained:
[1] = test system: EOC-20 microglial cells; experiment: LPS-stimulated nitrite production in EOC-20 microglia; assay type: cell-based, mouse
Procedure: In some embodiments, the compounds of the invention function is a cell-type specific, stimulus-specific, or condition-specific fashion. […] In contrast, when EOC-20 cells or RAW264.7 macrophages were stimulated with bacterial lipopolysaccharide (LPS; E. coli serotype 0127:B8) for 24-48 h and nitrite and cell viability were assessed. LKE inhibited cytokine-induced nitrite accumulation with a similar efficacy in both cell types (see FIGS. 9A & 9B).
Mouse EOC-20 microglia (American Tissue Type Collection, Gaithersville Md. USA) (Hensley et al., 2003; Walker et al., 1995) were grown in DMEM containing 20% L929 fibroblast-supplemented medium. Nitrite production by cytokine stimulated microglia was measured in cell culture medium using the Griess diazotization reaction as previously reported (Hensley et al., 2003; West et al., 2004).

[2] = test system: HT4 cells; experiment: glutamate toxicity in HT4 cells (LDH leakage); assay type: cell-based
Procedure: (§1) FIG. 13. (R)-LK protects HT4 cells against excitotoxicity. Determination of cell viability: HT4 cells were seeded in 6 well plates (1×10^7 cell/well). After 24 h, cell media was changed and (R)-LK (in DMSO) was used for 1 h prior to glutamate challenge. Powdered (R)-LK was dissolved in DMSO just before use. The viability of cells in culture was assessed by measuring the leakage of lactate dehydrogenase (LDH) from cells to media 18-24 h following glutamate treatment using the in vitro toxicology assay kit from Sigma Chemical Co. (St. Louis, Mo., USA). LDH leakage was determined using the following equation: % of total LDH leaked=(LDH activity in the cell culture media/total LDH activity) where total LDH activity=LDH activity in cell monolayer+LDH activity of detached cells+LDH activity in the cell culture media.
as §1, with “14. (R)-LKE1” for “13. (R)-LK”, “Determination of cell viability: HT4 cells were seeded in 6 well plates (1×10^7 cell/well). After 24 h, cell media was changed and (R)-LK (in DMSO) was used for 1 h prior to glutamate challenge. Powdered (R)-LK was dissolved in DMSO just before use.” left out, “media. […]” for “media.”

[3] = test system: SHSY5Y dopaminergic neuroblastoma cells; experiment: rotenone toxicity in SHSY5Y cells; assay type: cell-based; settings: 30 min pretreatment
Procedure: FIG. 15. (R)-LKE1 protects SHSY5Y dopaminergic neuroblastoma cells against rotenone toxicity. In this experiment SHSY5Y cultures were treated with (R)-LKE1 for 30 min. prior to addition of rotenone, then assayed for viability at various later time points. The percent change in 24 hour cell viability was measured in the presence and absence of (R)-LKE1 at difference rotenone concentrations. “LKE” refers to (R)-LKE1.
For example, the methods and compounds of present invention are expected to by useful for treating Parkinson's disease in an individual. […] In this experiment SHSY5Y cultures were treated with (R)-LKE1 for 30 min. prior to addition of rotenone, then assayed for viability at various later time points.

[4] = test system: C6 glioma cells; experiment: C6 glioma cells implanted in rat neocortex; assay type: in vivo, Sprague-Dawley rats; settings: 100 mg/day, 7 days/week from implantation
Procedure: FIG. 16. […] 100,000 C6 glioma cells were implanted in the neocortex of adult male Sprague-Dawley rats. The test group was administered (R)-LKE1 in saline 100 mg/day at each of 7 days/week starting the day of implantation.

[5] = test system: mice treated with E. coli LPS 0127:B8; experiment: LPS sepsis mouse model, viability; assay type: in vivo; settings: for Dead/alive: 40 mg/kg LPS + 100 mg/kg i.p. daily
Procedure: Six mice were treated with 40 mg/kg E. coli LPS 0127:B8 and co-treated with 100 mg/kg (R)-LKE1 i.p., daily. Viability was compared to a control group, receiving only LPS.

For CCOC(=O)[C@@H]1CSCC(C(=O)O)=N1 [(R)-LKE1], the “cytotoxicity (cell viability)” value ([1]; EOC-20 cells or RAW264.7 macrophages, LPS 24-48 h) was “No cytotoxicity was observed”, the “inhibition of LPS-stimulated nitric oxide production” value ([1]; EOC-20 microglial cells, LPS) was “inhibited LPS stimulated nitric oxide production” and the “glutamate toxicity (LDH release)” value [2] was “significantly diminished glutamate toxicity”. The “protection from rotenone toxicity” value [3] was “protecting SHSY5Y cells from rotenone toxicity”, the tumor cell proliferation [4] was “inhibits tumor cell proliferation” and the Dead/alive ([5]; 0 h) was 0/6. The Dead/alive ([5]; 18 h) was 2/4, the Dead/alive ([5]; 36 h) was 3/3 and the Dead/alive ([5]; 48 h) was 4/2. For the same molecule, the Dead/alive ([5]; 72 h) was 4/2 and the “chance of surviving the LPS model conditions” value ([5]; co-treated) was “higher chance of surviving”.
